This passage reports IC50 results from patent US10189788B2, “Substituted N,2-diarylquinoline-4-carboxamides and the use thereof as anti-inflammatory agents” (BAYER PHARMA AKTIENGESELLSCHAFT, priority 2014, dated 2019).

Structures are written as SMILES.

T1 sequence (P43088 whole entry): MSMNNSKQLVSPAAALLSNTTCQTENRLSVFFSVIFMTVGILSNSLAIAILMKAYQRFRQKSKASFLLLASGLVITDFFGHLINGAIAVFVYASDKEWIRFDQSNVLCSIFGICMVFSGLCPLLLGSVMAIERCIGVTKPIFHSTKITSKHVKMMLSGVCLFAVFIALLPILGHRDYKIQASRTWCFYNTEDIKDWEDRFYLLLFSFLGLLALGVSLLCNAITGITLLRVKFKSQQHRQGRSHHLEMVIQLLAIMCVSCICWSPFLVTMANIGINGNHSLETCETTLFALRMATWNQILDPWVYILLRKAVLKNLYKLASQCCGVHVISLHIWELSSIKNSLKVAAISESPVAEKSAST

One assay has as its target T1, Human FP Receptor (Homo sapiens (Human), UniProt P43088). The assay can be described thus: In vitro test of inhibition of human FP receptor activity, variant B-1A (PGF2α-induced calcium flux in FP-expressing CHEM1 cells). It is filed as cell-based. As to conditions: calcium flux induced by 3 nM PGF2α, Fluo-8, some mean values from multiple determinations. The source says: • BSA bovine serum albumin • CRTH2 chemoattractant receptor-homologous molecule expressed on T helper type 2 cells • DMEM Dulbecco's modified Eagle's medium • DMSO dimethyl sulfoxide • DP PGD2 receptor • EC50 half-maximum effective concentration • em. emission • EP PGE2 receptor • ex. excitation • FCS fetal calf serum • FP PGF2α receptor • HEPES 2-[4-(2-hydroxyethyl)piperazin-1-yl]ethanesulfonic acid • IC50 half-maximum inhibitory concentration • IP PGI2 receptor • MES 2-(N-morpholino)ethanesulfonic acid • Pen/Strep penicillin/streptomycin • PGD2 prostaglandin D2 • PGE2 prostaglandin E2 • PGF2α prostaglandin F2α • PGI2 prostaglandin […] • TC tissue culture • TP thromboxane A2 receptor • Tris tris(hydroxymethyl)aminomethane • v/v volume to volume ratio (of a solution) • w/w weight to weight ratio (of a solution) B-1.
For the compound `Cc1c(-c2ccccc2)nc2ccc(Br)cc2c1C(=O)Nc1ccc(C(=O)O)cc1F` [Example 7, 4-{[(6-Bromo-3-methyl-2-phenylquinolin-4-yl)carbonyl]amino}-3-fluorobenzoic acid], the 50% inhibitory concentration (IC50) came out at 20 nM.
Consider `Cc1c(-c2ccccc2)nc2cc(Cl)c(Br)cc2c1C(=O)Nc1ccc(C(=O)O)cc1F` [Example 41, 4-{[(6-Bromo-7-chloro-3-methyl-2-phenylquinolin-4-yl)carbonyl]amino}-3-fluorobenzoic acid], for which the IC50 stood at 25 nM.
The same measure, in the same setting: the value for `Cc1c(-c2ccccc2)nc2cc(Cl)c(Cl)cc2c1C(=O)Nc1ccc(C(=O)O)cc1F` [Example 42, 4-{[(6,7-Dichloro-3-methyl-2-phenylquinolin-4-yl)carbonyl]amino}-3-fluorobenzoic acid] was 33 nM.
As to `Cc1c(-c2ccc(F)cc2)nc2ccc(Br)cc2c1C(=O)Nc1ccc(C(=O)O)cc1F` [Example 43, 4-({[6-Bromo-2-(4-fluorophenyl)-3-methylquinolin-4-yl]carbonyl}amino)-3-fluorobenzoic acid], the IC50 worked out at 52 nM.
For the compound `Cc1c(-c2cccc(F)c2)nc2ccc(Br)cc2c1C(=O)Nc1ccc(C(=O)O)cc1F` [Example 44, 4-({[6-Bromo-2-(3-fluorophenyl)-3-methylquinolin-4-yl]carbonyl}amino)-3-fluorobenzoic acid], the IC50 came out at 33 nM.
`Cc1c(-c2ccccc2F)nc2ccc(Br)cc2c1C(=O)Nc1ccc(C(=O)O)cc1F` [Example 45, 4-({[6-Bromo-2-(2-fluorophenyl)-3-methylquinolin-4-yl]carbonyl}amino)-3-fluorobenzoic acid]: the IC50 came out at 205 nM.
The same measure, in the same setting: the result for `Cc1c(-c2ccccc2)nc2ccc(Br)cc2c1C(=O)Nc1ccc(C(N)=O)cc1` [Example 47, 6-Bromo-N-(4-carbamoylphenyl)-3-methyl-2-phenylquinoline-4-carboxamide] reads 197 nM; that for `Cc1c(-c2ccccc2)nc2ccc(Br)cc2c1C(=O)Nc1ccc(C(N)=O)cc1F` [Example 48, 6-Bromo-N-(4-carbamoyl-2-fluorophenyl)-3-methyl-2-phenylquinoline-4-carboxamide], 102 nM; that for `Cc1c(C(=O)Nc2ccc(C(=O)O)cc2F)c2cc(Br)ccc2[n+]([O-])c1-c1ccccc1` [Example 49, 4-{[(6-Bromo-3-methyl-1-oxido-2-phenylquinolin-4-yl)carbonyl]amino}-3-fluorobenzoic acid], 120 nM.
For `Cc1c(-c2ccccc2)nc2ccc(Br)cc2c1C(=O)Nc1ccc(C(=O)O)cc1F` [Example 50, Sodium 4-{[(6-bromo-3-methyl-2-phenylquinolin-4-yl)carbonyl]amino}-3-fluorobenzoate], the concentration for half-maximal inhibition (IC50) stood at 37 nM.
As for `COCSc1cc(C(=O)O)ccc1NC(=O)c1c(C)c(-c2ccccc2)nc2ccc(Br)cc12` [Example 52, 4-{[(6-Bromo-3-methyl-2-phenylquinolin-4-yl)carbonyl]amino}-3-[(methoxymethyl)sulfanyl]benzoic acid], the half-inhibitory concentration (IC50) turned out to be 17 nM.
With `Cc1c(-c2ccccc2)nc2ccc(Br)cc2c1C(=O)Nc1ccc(C(=O)O)cc1S(=O)(=O)C(F)(F)F` [Example 53, 4-{[(6-Bromo-3-methyl-2-phenylquinolin-4-yl)carbonyl]amino}-3-[(trifluoromethyl)sulfonyl]benzoic acid], the IC50 worked out at 31 nM.
As to `Cc1c(C(=O)Nc2ccc(C(=O)O)cc2SC(F)(F)F)c2cc(Br)ccc2[n+]([O-])c1-c1ccccc1` [Example 54, 4-{[(6-Bromo-3-methyl-1-oxido-2-phenylquinolin-4-yl)carbonyl]amino}-3-[(trifluoromethyl)sulfanyl]benzoic acid], the 50% inhibitory concentration (IC50) turned out to be 102 nM.
Take `Cc1c(-c2ccccc2)nc2ccc(Br)c(Cl)c2c1C(=O)Nc1ccc(C(=O)O)cc1F` [Example 55, 4-{[(6-Bromo-5-chloro-3-methyl-2-phenylquinolin-4-yl)carbonyl]amino}-3-fluorobenzoic acid]: the IC50 amounted to 49 nM.
As for `CNC(=O)c1ccc(NC(=O)c2c(C)c(-c3ccccc3)nc3ccc(Br)cc23)c(F)c1` [Example 56, 6-Bromo-N-[2-fluoro-4-(methylcarbamoyl)phenyl]-3-methyl-2-phenylquinoline-4-carboxamide], the half-inhibitory concentration (IC50) worked out at 285 nM.
For the compound `O=C(O)c1ccc(NC(=O)c2c(C(F)(F)F)c(-c3ccccc3)nc3ccc(Br)cc23)c(F)c1` [Example 57, 4-({[6-Bromo-2-phenyl-3-(trifluoromethyl)quinolin-4-yl]carbonyl}amino)-3-fluorobenzoic acid], the IC50 worked out at 437 nM.
`Cc1c(-c2ccccc2)nc2c(C)cc(Br)cc2c1C(=O)Nc1ccc(C(=O)O)cc1` [Example 58, 4-{[(6-Bromo-3,8-dimethyl-2-phenylquinolin-4-yl)carbonyl]amino}benzoic acid]: the IC50 came out at 557 nM.
The same measure, in the same setting: the result for `Cc1c(-c2ccccc2)nc2ccc(Cl)cc2c1C(=O)Nc1ccc(C(=O)O)cc1F` [Example 59, 4-{[(6-Chloro-3-methyl-2-phenylquinolin-4-yl)carbonyl]amino}-3-fluorobenzoic acid] reads 203 nM; that for `COCS(=O)(=O)c1cc(C(=O)O)ccc1NC(=O)c1c(C)c(-c2ccccc2)nc2ccc(Br)cc12` [Example 60, 4-{[(6-Bromo-3-methyl-2-phenylquinolin-4-yl)carbonyl]amino}-3-[(methoxymethyl)sulfonyl]benzoic acid], 27 nM; that for `Cc1c(-c2ccccc2)nc2ccc(C(C)(C)C)cc2c1C(=O)Nc1ccc(C(=O)O)cc1F` [Example 61, 4-{[(6-tert-Butyl-3-methyl-2-phenylquinolin-4-yl)carbonyl]amino}-3-fluorobenzoic acid], 131 nM.
On to `O=C(O)c1cc(F)c(NC(=O)c2c(C(F)(F)F)c(-c3ccccc3)nc3ccc(Br)cc23)c(Br)c1` [Example 62, 3-Bromo-4-({[6-bromo-2-phenyl-3-(trifluoromethyl)quinolin-4-yl]carbonyl}amino)-5-fluorobenzoic acid], for which the IC50 worked out at 301 nM.
Turning to `Cc1c(-c2ccccc2)nc2ccc(S(F)(F)(F)(F)F)cc2c1C(=O)Nc1ccc(C(=O)O)cc1F` [Example 63, 3-Fluoro-4-({[3-methyl-6-(pentafluoro-λ^6-sulfanyl)-2-phenylquinolin-4-yl]carbonyl}amino)benzoic acid], the IC50 came to 246 nM.
With `Cc1c(-c2ccccc2)nc2ccc(C(F)F)cc2c1C(=O)Nc1ccc(C(=O)O)cc1F` [Example 64, 4-({[6-(Difluoromethyl)-3-methyl-2-phenylquinolin-4-yl]carbonyl}amino)-3-fluorobenzoic acid], the half-maximal inhibitory concentration (IC50) came to 362 nM.
With `Cc1c(-c2ccccc2)nc2ccc(Br)cc2c1C(=O)Nc1ccc(C(=O)O)c(F)c1F` [Example 65, 4-{[(6-Bromo-3-methyl-2-phenylquinolin-4-yl)carbonyl]amino}-2,3-difluorobenzoic acid], the IC50 turned out to be 105 nM.
Consider `Cc1c(-c2ccccc2)nc2ccc(Br)cc2c1C(=O)Nc1cc(F)c(C(=O)O)cc1F` [Example 66, 4-{[(6-Bromo-3-methyl-2-phenylquinolin-4-yl)carbonyl]amino}-2,5-difluorobenzoic acid], for which the half-maximal inhibitory concentration (IC50) came to 282 nM.
`Cc1c(-c2ccccc2)nc2ccc(Br)cc2c1C(=O)Nc1ccc(C(=O)NS(=O)(=O)C(F)(F)F)cc1F` [Example 67, 6-Bromo-N-(2-fluoro-4-{[(trifluoromethyl)sulfonyl]carbamoyl}phenyl)-3-methyl-2-phenylquinoline-4-carboxamide]: the IC50 was found to be 239 nM.
On the same count and under the same terms, the result for `COc1c(-c2ccccc2)nc2ccc(Br)cc2c1C(=O)Nc1ccc(C(=O)O)cc1F` [Example 74, 4-{[(6-Bromo-3-methoxy-2-phenylquinolin-4-yl)carbonyl]amino}-3-fluorobenzoic acid] reads 220 nM.
Regarding `O=C(O)c1ccc(NC(=O)c2c(Cl)c(-c3ccccc3)nc3ccc(I)cc23)c(F)c1` [Example 75, 4-{[(3-Chloro-6-iodo-2-phenylquinolin-4-yl)carbonyl]amino}-3-fluorobenzoic acid], the concentration for half-maximal inhibition (IC50) amounted to 9 nM.
For `O=C(O)c1ccc(NC(=O)c2c(Cl)c(-c3ccccc3)nc3ccc(Br)cc23)c(F)c1` [Example 76, 4-{[(6-Bromo-3-chloro-2-phenylquinolin-4-yl)carbonyl]amino}-3-fluorobenzoic acid], the 50% inhibitory concentration (IC50) is 17 nM.
As to `O=C(O)c1ccc(NC(=O)c2c(C3CC3)c(-c3ccccc3)nc3ccc(Br)cc23)c(F)c1` [Example 77, 4-{[(6-Bromo-3-cyclopropyl-2-phenylquinolin-4-yl)carbonyl]amino}-3-fluorobenzoic acid], the IC50 was determined as 27 nM.
Consider `Cc1c(-c2ccccc2)nc2c(C)cc(Br)cc2c1C(=O)Nc1ccc(C(=O)O)cc1F` [Example 78, 4-{[(6-Bromo-3,8-dimethyl-2-phenylquinolin-4-yl)carbonyl]amino}-3-fluorobenzoic acid], for which the IC50 was found to be 154 nM.

A further assay has as its target T1, Human FP Receptor. The assay can be described thus: In vitro test of inhibition of human FP receptor activity, variant B-1B (PGF2α-induced calcium flux in recombinant FP-expressing CHO cells with GCaMP6). It is filed as cell-based. As to conditions: recombinant FP-expressing CHO cells with GCaMP6, calcium flux induced by 3 nM PGF2α, some mean values from multiple determinations. From the text:
470 nm/em. 525 nm in a fluorescence measuring instrument (FLIPR Tetra®, MolecularDevices) for 120 seconds.
Consider `Cc1c(-c2ccccc2)nc2ccc(Br)cc2c1C(=O)Nc1ccc(C(=O)O)cc1F` [Example 7, 4-{[(6-Bromo-3-methyl-2-phenylquinolin-4-yl)carbonyl]amino}-3-fluorobenzoic acid], for which the IC50 is 34 nM.
In the case of `Cc1c(-c2ccccc2)nc2ccc(Br)cc2c1C(=O)Nc1ccc(C(=O)O)cc1F` [Example 50, Sodium 4-{[(6-bromo-3-methyl-2-phenylquinolin-4-yl)carbonyl]amino}-3-fluorobenzoate], the IC50 turned out to be 44 nM.
As for `COCSc1cc(C(=O)O)ccc1NC(=O)c1c(C)c(-c2ccccc2)nc2ccc(Br)cc12` [Example 52, 4-{[(6-Bromo-3-methyl-2-phenylquinolin-4-yl)carbonyl]amino}-3-[(methoxymethyl)sulfanyl]benzoic acid], the half-inhibitory concentration (IC50) was 6 nM.
With `Cc1c(-c2ccccc2)nc2ccc(C(C)(C)C)cc2c1C(=O)Nc1ccc(C(=O)O)cc1F` [Example 61, 4-{[(6-tert-Butyl-3-methyl-2-phenylquinolin-4-yl)carbonyl]amino}-3-fluorobenzoic acid], the IC50 worked out at 79 nM.
Turning to `Cc1c(-c2ccccc2)nc2ccc(Br)cc2c1C(=O)Nc1ccc(C(=O)O)c(F)c1F` [Example 65, 4-{[(6-Bromo-3-methyl-2-phenylquinolin-4-yl)carbonyl]amino}-2,3-difluorobenzoic acid], the IC50 was determined as 60 nM.
In the case of `Cc1c(-c2ccccc2)nc2ccc(Br)cc2c1C(=O)Nc1ccc(C(=O)NS(=O)(=O)C(F)(F)F)cc1F` [Example 67, 6-Bromo-N-(2-fluoro-4-{[(trifluoromethyl)sulfonyl]carbamoyl}phenyl)-3-methyl-2-phenylquinoline-4-carboxamide], the IC50 is 134 nM.
On to `O=C(O)c1ccc(NC(=O)c2c(F)c(-c3ccccc3)nc3ccc(Br)cc23)c(F)c1` [Example 73, 4-{[(6-Bromo-3-fluoro-2-phenylquinolin-4-yl)carbonyl]amino}-3-fluorobenzoic acid], for which the IC50 was found to be 98 nM.
